The results in this text go back to ChEMBL document CHEMBL1201862, “PubChem BioAssay data set” (2004).

What all share (assay): NCI-60 cell line screen, 48 h
Test [1] concerns ACHN.
The subject of test [2] is CCRF-CEM.
In test [3] the test system is HCT-116.
The test system of test [4] is HCT-15.
Test [5] relates to IGROV-1.
Test [6] concerns K562.
The subject of test [7] is M14.
Test [8] concerns MCF7.
For test [9], the system named is MDA-MB-435.
Test [10] relates to NCI-H522.
For test [11], the system named is NCI/ADR-RES.
Test [12] deals with OVCAR-5.
Test [13] deals with PC-3.
Test [14] has as its system SF-268.
Test [15] concerns SF-295.
For test [16], the system named is SK-MEL-5.
For test [17], the system named is SNB-19.
Test [18] deals with UO-31.
Test [19] relates to NCI-H226.
Test [20] deals with OVCAR-4.

SMILES strings stand for the structures.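 Five compound concentrations were applied to cells in 96-well plates for 48 hours; endpoints were derived by simple linear interpolation of the resulting dose-response curve. GI50: concentration for 50% inhibition of growth.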 The source made the active and inactive calls. No stated cut-off is given here; in the data, active = GI50 up to about 1.1 µM and inactive = higher.

Regarding `CCC1C(c2cccc(OC)c2O)c2cc3c(cc2OC1N1CCCC1)OCO3` (stereo not drawn), the GI50 in test [1] was 15 µM (inactive); in test [2], 12.6 µM (inactive); in test [3] it was 8.47 µM (inactive); in [4], 12.2 µM; in test [5], 14.9 µM (inactive); in [6], 11.8 µM (inactive). Besides, the GI50 in test [7] was 6.43 µM (inactive); in test [8], 22.2 µM (inactive); in test [9], 3.85 µM (inactive); in [10], 10.7 µM (inactive); in test [11], 15.7 µM (inactive); in test [12], 20.1 µM (inactive). Also, the GI50 in test [13] was 16.6 µM (inactive); in test [14], 16.7 µM (inactive); in test [15] it was 16.8 µM (inactive); in [16], 10.4 µM (inactive); in test [17], 14.6 µM (inactive); in [18] it was 14.1 µM (inactive).

For the compound `CC(=O)NCC1OC2COC(c3ccccc3)OC2C2N=C(c3ccccc3)OC12` (stereo not drawn), the GI50 was 45.5 µM (inactive) in test [1]; 35.4 µM (inactive) in test [2]; 38.4 µM (inactive) in [3]; 43.4 µM in test [4]; 32.6 µM (inactive) in test [6]; 60.8 µM (inactive) in test [7]. Also, the GI50 in test [8] was 41.9 µM (inactive); in test [9] it was 85.3 µM (inactive); in test [19], 67.5 µM (inactive); in test [11] it was 42.5 µM (inactive); in test [20], 85.9 µM (inactive); in [12] it was > 100 µM (inactive). The GI50 in test [13] is 24.9 µM (inactive); in [14], 81.1 µM (inactive); in [15], 35.3 µM (inactive); in test [16], 39.2 µM (inactive); in test [17] it was > 100 µM (inactive); in test [18], 39.9 µM (inactive).

Consider `COCCOC(=O)c1c(C)[n+]([O-])c2cc(Cl)c(Cl)cc2[n+]1[O-]`, for which the GI50 in test [1] was 12.7 µM (inactive); in [2], 9.29 µM (inactive); in [4], 8.71 µM; in test [5] it was 3.85 µM (inactive); in test [6], 13.7 µM (inactive); in [7], 18.6 µM (inactive). For the same compound, the GI50 in [8] was 11.1 µM (inactive); in [9], 17.5 µM (inactive); in test [10] it was 17.1 µM (inactive); in test [11], 11 µM (inactive); in test [20], 14.4 µM (inactive); in [12], 16.7 µM (inactive). For the same compound, the GI50 in test [13] is 21.3 µM (inactive); in test [14], 14.2 µM (inactive); in [15], 17.1 µM (inactive); in [16], 7.6 µM (inactive); in test [17] it was 40.8 µM (inactive); in test [18], 0.311 µM (active).

With `O=C(O)c1ccc(Nc2cnc3ccc(C(F)(F)F)cc3n2)cc1`, the GI50 was 18 µM (inactive) in test [1]; 15.6 µM (inactive) in test [2]; 20.1 µM (inactive) in test [3]; 18.7 µM in test [4]; 12.4 µM (inactive) in test [5]; 20.9 µM (inactive) in test [6]. Also, the GI50 in test [7] was 38.6 µM (inactive); in test [8], 33 µM (inactive); in test [9], 31.6 µM (inactive); in test [19], 14.2 µM (inactive); in test [11], 32.7 µM (inactive); in test [20] it was 18.9 µM (inactive). The GI50 in [12] was 32.6 µM (inactive); in test [13], 17.7 µM (inactive); in test [14], 31 µM (inactive); in test [15] it was 19.6 µM (inactive); in test [16], 16.9 µM (inactive); in test [17], 18.8 µM (inactive). In addition, the GI50 in test [18] was 13.7 µM (inactive).

Regarding `CCOC(=O)C(C)c1nc2ccc(C(F)(F)F)cc2[nH]c1=O` (stereo not drawn), the GI50 in test [1] is > 100 µM (inactive); in test [2] it was 77.8 µM (inactive); in test [3], 72.8 µM (inactive); in [4], 95.3 µM; in test [6], 48.5 µM (inactive); in [7], 80 µM (inactive). Besides, the GI50 in test [8] was 60.8 µM (inactive); in test [9] it was > 100 µM (inactive); in test [19], 73.6 µM (inactive); in test [11] it was 37.4 µM (inactive); in test [20] it was 42.5 µM (inactive); in test [12], > 100 µM (inactive). For the same compound, the GI50 in test [13] was 36.9 µM (inactive); in test [14], 87.1 µM (inactive); in test [15] it was 45.5 µM (inactive); in [16], 52.7 µM (inactive); in test [17] it was > 100 µM (inactive); in [18], 36.2 µM (inactive).

For the compound `O=C1c2cc3ccccc3cc2C2(c3ccc(Cl)cc3)NCCN12` (stereo not drawn), the GI50 was 33 µM (inactive) in test [1]; 33 µM (inactive) in test [2]; 18 µM (inactive) in test [3]; 27 µM in test [4]; 27.4 µM (inactive) in test [5]; 61.7 µM (inactive) in test [6]. Moreover, the GI50 is 26.8 µM (inactive) in test [7]; 26.2 µM (inactive) in test [8]; 33 µM (inactive) in [9]; 34.5 µM (inactive) in [19]; 32.8 µM (inactive) in test [11]; 52.5 µM (inactive) in test [20]. The GI50 in test [12] is 21.5 µM (inactive); in test [13] it was 31.1 µM (inactive); in test [14] it was 44.2 µM (inactive); in test [15], 25.5 µM (inactive); in test [16], 20 µM (inactive); in test [17], 24.5 µM (inactive). Also, the GI50 in [18] was 29.9 µM (inactive).

For the compound `O=C(OCC1CCCN2CCCCC12)c1ccncc1` (stereo not drawn), the GI50 was > 100 µM (inactive) in test [1]; > 100 µM (inactive) in test [2]; > 100 µM (inactive) in test [3]; above 100 µM in test [4]; > 100 µM (inactive) in test [5]; > 100 µM (inactive) in test [6]. For the same compound, the GI50 in test [7], in [8], in test [9], in test [19], in [11] and in test [20] was > 100 µM (inactive) each time. For the same compound, the GI50 in test [12], in [13], in test [14], in test [15], in [16] and in [17] was > 100 µM (inactive) throughout. In test [18], the GI50 is > 100 µM (inactive).

In the case of `BrCCCCCOc1ccc(-c2c3ccccc3c(-c3ccc(OCCCCCBr)cc3)c3ccccc23)cc1`, the GI50 in test [1] was > 100 µM (inactive); in test [2] it was > 100 µM (inactive); in test [3], > 100 µM (inactive); in test [4], above 100 µM; in test [5], > 100 µM (inactive); in test [6], > 100 µM (inactive). Also, the GI50 in test [7], in [8], in test [9], in test [19], in test [11] and in [20] was > 100 µM (inactive) each time. Further, the GI50 in [12], in test [13], in [14], in test [15], in test [16] and in test [17] was > 100 µM (inactive) in each case. In addition, the GI50 in [18] was > 100 µM (inactive).

Turning to `CCOC(=O)c1cn(CC)c(=O)n2c1nc1ccccc12`, the GI50 was 55 µM (inactive) in [1]; 28.4 µM (inactive) in test [2]; 50.6 µM (inactive) in test [3]; 40.2 µM in [4]; 33.3 µM (inactive) in test [5]; 42.1 µM (inactive) in test [6]. In addition, the GI50 in test [7] is > 100 µM (inactive); in test [8], 54.6 µM (inactive); in [9] it was > 100 µM (inactive); in test [19], 44.3 µM (inactive); in test [11] it was 62.5 µM (inactive); in test [20] it was 35.3 µM (inactive). The GI50 in test [12] is > 100 µM (inactive); in [13], > 100 µM (inactive); in [15], > 100 µM (inactive); in test [16], 49.8 µM (inactive); in [17], > 100 µM (inactive); in [18], 3.48 µM (inactive).

Take `CN(Cc1cnc2nc(N)nc(N)c2n1)c1ccc(C(=O)NC(CCC(=O)O)C(=O)O)c2ccccc12` (stereo not drawn): the GI50 in [1] was 0.00441 µM (active); in test [2] it was 0.000843 µM (active); in test [3], 0.000647 µM (active); in test [4], 0.00186 µM; in test [5], 0.0137 µM (active); in test [6], 0.000301 µM (active). Further, the GI50 in test [7] is 0.00869 µM (active); in [8], 0.00163 µM (active); in test [9], 0.00247 µM (active); in test [19] it was < 0.1 µM (active); in [11] it was 0.00395 µM (active); in [20], < 0.1 µM (active). Further, the GI50 in test [12] was 0.0185 µM (active); in test [13], 0.000479 µM (active); in test [14], 0.00536 µM (active); in [15] it was 0.00604 µM (active); in [16], 0.0107 µM (active); in [17], 0.0612 µM (active). In addition, in [18], the GI50 was 0.00638 µM (active).

Regarding `O=c1oc2c(ccc3ccccc32)cc1C1=CSC2=NCCN12`, the GI50 in test [1] was 35.2 µM (inactive); in test [2], 30.5 µM (inactive); in test [3], 32.4 µM (inactive); in test [4], 38.4 µM; in test [5] it was 32.7 µM (inactive); in test [6], 33.4 µM (inactive). Further, the GI50 in test [7] was 50.2 µM (inactive); in test [8], 21.8 µM (inactive); in test [9] it was 53.3 µM (inactive); in [10], 30.3 µM (inactive); in test [11], 75.2 µM (inactive); in [20], 44.5 µM (inactive). Besides, the GI50 in [13] is 71.4 µM (inactive); in test [14] it was 57.9 µM (inactive); in test [15] it was 33 µM (inactive); in test [16], 46.3 µM (inactive); in [17], 38.6 µM (inactive); in test [18], 23.3 µM (inactive).
